Assay results reported in publication PMC8865918 (Journal of medicinal chemistry, 2022).
Where “and” joins values, the source holds several entries; their conditions need not be identical. Identical values can stand only once. Counter-ions that a name gives are not always drawn.

Experiments:
[1] = 30 (6a); ref 9 (6b); cited from earlier work
soluble hCD73 = molecular target: T1, soluble hCD73 (Homo sapiens, UniProt P21589); experiment: Inhibition of soluble hCD73; assay type: biochemical; conditions: for fold increase in potency (decrease in Ki) relative to compound 9: versus N^4-benzyloxy compound 9; for fold more potent than 22: versus compound 22
T1 sequence (P21589 27-549 limits assumed): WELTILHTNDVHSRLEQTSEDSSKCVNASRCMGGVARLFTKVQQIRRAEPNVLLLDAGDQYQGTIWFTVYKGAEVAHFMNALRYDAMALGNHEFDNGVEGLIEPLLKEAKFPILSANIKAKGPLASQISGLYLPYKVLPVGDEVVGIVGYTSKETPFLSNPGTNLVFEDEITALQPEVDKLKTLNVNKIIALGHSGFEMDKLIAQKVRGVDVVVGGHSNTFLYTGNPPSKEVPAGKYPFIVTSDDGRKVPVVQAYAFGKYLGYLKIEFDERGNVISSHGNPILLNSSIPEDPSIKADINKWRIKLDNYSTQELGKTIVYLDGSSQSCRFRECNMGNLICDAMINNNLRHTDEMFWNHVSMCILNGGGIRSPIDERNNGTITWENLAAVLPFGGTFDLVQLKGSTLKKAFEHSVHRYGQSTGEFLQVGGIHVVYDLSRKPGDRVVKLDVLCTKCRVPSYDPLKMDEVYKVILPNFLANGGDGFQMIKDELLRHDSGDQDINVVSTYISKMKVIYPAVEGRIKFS

σ1 receptor = σ1 receptor (Homo sapiens, UniProt Q99720); experiment: Off-target binding, Psychoactive Drug Screening Program
σ1 receptor, sequence (Q99720 whole entry, species assumed): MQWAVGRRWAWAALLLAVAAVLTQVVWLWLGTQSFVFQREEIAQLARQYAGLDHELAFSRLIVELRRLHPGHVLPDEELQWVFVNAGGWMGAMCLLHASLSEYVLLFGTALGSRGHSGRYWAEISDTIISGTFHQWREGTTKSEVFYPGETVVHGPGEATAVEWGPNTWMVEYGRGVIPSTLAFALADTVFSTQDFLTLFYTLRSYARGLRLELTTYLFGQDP

[2] = molecular target: T2, tonsillar CD73 (human palatine tonsil cryosections) (Homo sapiens, UniProt P21589); experiment: In situ ecto-5′-nucleotidase; assay type: biochemical; conditions: 50–250 nM inhibitor; 100 μM AMP; tonsillar germinal centers
T2 sequence (P21589 27-574): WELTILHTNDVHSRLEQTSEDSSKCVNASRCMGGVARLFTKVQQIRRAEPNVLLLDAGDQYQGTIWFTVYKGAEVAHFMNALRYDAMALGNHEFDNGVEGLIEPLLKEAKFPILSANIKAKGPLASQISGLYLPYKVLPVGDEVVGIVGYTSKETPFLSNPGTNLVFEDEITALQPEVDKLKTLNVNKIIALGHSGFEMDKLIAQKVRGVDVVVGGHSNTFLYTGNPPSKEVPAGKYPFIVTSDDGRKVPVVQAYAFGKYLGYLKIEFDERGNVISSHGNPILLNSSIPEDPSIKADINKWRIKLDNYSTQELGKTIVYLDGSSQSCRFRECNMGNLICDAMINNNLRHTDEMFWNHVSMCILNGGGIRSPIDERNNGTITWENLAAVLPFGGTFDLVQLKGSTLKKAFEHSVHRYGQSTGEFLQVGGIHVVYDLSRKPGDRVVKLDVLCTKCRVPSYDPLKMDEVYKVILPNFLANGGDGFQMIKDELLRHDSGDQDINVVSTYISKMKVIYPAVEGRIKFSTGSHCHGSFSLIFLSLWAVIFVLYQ

rat soluble CD73 = conditions: read-out: Ki ± SEM; cited from earlier work

Molecule: C[C@H](Nc1cc(Cl)nc2c1cnn2[C@@H]1O[C@H](COP(=O)(O)CP(=O)(O)O)[C@@H](O)[C@H]1O)c1ccccc1F [Compound 6a, Quemliclustat]
- oral bioavailability [1]: display oral bioavailability

Molecule: COC[C@](CO)(OC[C@H]1O[C@@H](n2ncc3c(NC4CCCC4)nc(Cl)nc32)[C@H](O)[C@@H]1O)P(=O)(O)O [Compound 6b, OP-5244]
- oral bioavailability [1]: display oral bioavailability

Molecule: CCN(CC)CC.CCN(CC)CC.Cn1c(=O)n([C@@H]2O[C@H](COP(=O)(O)CP(=O)(O)O)[C@@H](O)[C@H]2O)cc/c1=N/OCc1ccccc1Cl [Compound 10, N^4-(2-Chlorobenzyloxy)-3-methylcytidine-5′-α,β-methylenediphosphonate Triethylammonium Salt]
- fold increase in potency (decrease in Ki) relative to compound 9 (soluble hCD73; soluble hCD73): 6–7 fold

Molecule: CCN(CC)CC.CCN(CC)CC.Cn1c(=O)n([C@@H]2O[C@H](COP(=O)(O)CP(=O)(O)O)[C@@H](O)[C@H]2O)cc/c1=N/OCc1cccc(Cl)c1 [Compound 11, N^4-(3-Chlorobenzyloxy)-3-methylcytidine-5′-α,β-methylenediphosphonate Triethylammonium Salt]
- fold increase in potency (decrease in Ki) relative to compound 9 (soluble hCD73; soluble hCD73): 6–7 fold

Molecule: Cn1c(=O)n([C@@H]2O[C@H](COP(=O)(O)CP(=O)(O)O)[C@@H](O)[C@H]2O)cc/c1=N/OCc1ccc(Cl)cc1 [Compound 16, N^4-(4-Chlorobenzyloxy)-3-methylcytidine-5′-α,β-methylenediphosphonate Triethylammonium Salt]
- Ki (σ1 receptor): 2.61 ± 0.64 µM

Molecule: CCN(CC)CC.CCN(CC)CC.Cn1c(=O)n([C@@H]2O[C@H](COP(=O)(O)CP(=O)(O)O)[C@@H](O)[C@H]2O)cc/c1=N/OCc1ccc(I)cc1 [Compound 18, N^4-(4-Iodobenzyloxy)-3-methylcytidine-5′-α,β-methylenediphosphonate Triethylammonium Salt]
- fold increase in potency (decrease in Ki) relative to compound 9 (soluble hCD73; soluble hCD73): ~ 20 fold and 24 fold
- effect on catalytic (AMPase) activity of tonsillar CD73 in situ [2]: decreased the catalytic activities

Molecule: CCN(CC)CC.CCN(CC)CC.Cn1c(=O)n([C@@H]2O[C@H](COP(=O)(O)CP(=O)(O)O)[C@@H](O)[C@H]2O)cc/c1=N/OCc1ccc(S(F)(F)(F)(F)F)cc1 [Compound 20, N^4-[4-(Pentafluorosulfanyl)benzyloxy]-3-methylcytidine-5′-α,β-methylenediphosphonate Triethylammonium Salt]
- effect on catalytic (AMPase) activity of tonsillar CD73 in situ [2]: decreased the catalytic activities

Molecule: CCN(CC)CC.CCN(CC)CC.Cn1c(=O)n([C@@H]2O[C@H](COP(=O)(O)CP(=O)(O)O)[C@@H](O)[C@H]2O)cc/c1=N/OCc1ccc(C(N)=O)cc1 [Compound 23, N^4-[4-(Carbamoyl)benzyloxy]-3-methylcytidine-5′-α,β-methylenediphosphate Triethylammonium Salt]
- fold weaker than methyl ester 21 (soluble hCD73; soluble hCD73, versus compound 21): 2 fold

Molecule: CCN(CC)CC.CCN(CC)CC.CCOC(=O)CCNC(=O)c1ccc(CO/N=c2/ccn([C@@H]3O[C@H](COP(=O)(O)CP(=O)(O)O)[C@@H](O)[C@H]3O)c(=O)n2C)cc1 [Compound 26, N^4-{4-[(3-Ethoxy-3-oxopropyl)carbamoyl]benzyloxy}-3-methylcytidine-5′-α,β-methylenediphosphonate Triethylammonium Salt]
- fold more potent than 22 (soluble hCD73; soluble hCD73): 5 fold

Molecule: CCN(CC)CC.CCN(CC)CC.Cn1c(=O)n([C@@H]2O[C@H](COP(=O)(O)CP(=O)(O)O)[C@@H](O)[C@H]2O)cc/c1=N/OCc1ccc(C(=O)NCCC(=O)O)cc1 [Compound 27, N^4-{4-[(2-Carboxyethyl)carbamoyl]benzyloxy}-3-methylcytidine-5′-α,β-methylenediphosphonate Triethylammonium Salt]
- fold more potent than 22 (soluble hCD73; soluble hCD73): 5 fold

Molecule: CCN(CC)CC.CCN(CC)CC.O=c1ccn([C@H]2[C@H](O)[C@H](O)[C@]3(COP(=O)(O)CP(=O)(O)O)C[C@H]23)c(=O)[nH]1 [Compound 28, {[({(2R,3S,4R,5S)-4-[2,4-Dioxo-3,4-dihydropyrimidin-1(2H)-yl]-2,3-dihydroxy-1λ^5-bicyclo[3.1.0]hexan-1-yl}methoxy)(hydroxy)phosphoryl]methyl}phosphonic Acid Triethylammonium Salt]
- inhibition at 50 µM (soluble hCD73): 28%
- % inhibition (soluble hCD73; soluble hCD73, between 0.03 nM and 50 μM): < 50%

Molecule: CCN(CC)CC.CCN(CC)CC.Cn1c(=O)n([C@H]2[C@H](O)[C@H](O)[C@]3(COP(=O)(O)CP(=O)(O)O)C[C@H]23)cc/c1=N/OCc1ccc(Cl)cc1 [Compound 29, [({[(2R,3S,4R,5S)-4-(4-{[(4-Chlorobenzyl)oxy]imino}-3-methyl-2-oxo-3,4-dihydropyrimidin-1(2H)-yl)-2,3-dihydroxy-1λ^5-bicyclo[3.1.0]hexan-1-yl]methoxy}(hydroxy)phosphoryl)methyl]phosphonic Acid Triethylammonium Salt]
- fold weaker inhibitor than ribose analogue 16 (soluble hCD73; soluble hCD73, versus compound 16): 88 fold and ~ 90 fold

Molecule: N^4-benzyloxy-3-methylcytidine-5′-α,β-methylene-diphosphonate [Compound 9]
- Ki (rat soluble CD73): 0.00367 µM
